Source: patent US20230047208A1, “RNA Splicing Modulation” (The General Hospital Corporation, priority 2020, published 2023)

Legend:
CFTR channel = assay: CFTR functional assessment, short circuit current (Ussing chamber) in CFBE cells stably expressing c.2988G>A; type: cell-based, human; details: CFBE c.2988G>A, Compound (I) treated cells, 10 μM ivacaftor acute, apical side
From the text: WT CFTR-EMG-i14-i18, CFTR-EMG-i14-i18 harboring c.2988G>A, Flp-In-CFBE, and Flp-In-293 cells stably expressing WT-EMG and c.2988G>A EMG were generated. Both Flpin-293 and Flp-In-CFBE cells lack endogenous CFTR expression (CFBE41o-) and contain a single Flp recombinase target site. Co-transfection of EMG plasmid with pOG44 (a plasmid encoding Flp recombinase) allowed for genomic integration at the FRT site. Hygromycin was used for stable cell selection.
Assessment of CFTR channel function and response to Compound (I) was performed in CFBEs stably expressing c.2988G>A. Briefly, CFBE stable cell lines were plated on snapwell filters. When transepithelial resistance reached ˜200Ω (˜ 5-7 days) as measured using Voltammeter (Physiologic Instruments), cells were treated with Compound (I) at varying doses (0.3 μM to 10 μM) for next 3 days. Filters were mounted in Ussing chambers (Physiological Instruments). A high chloride solution was added to the basolateral chamber and a low chloride solution was added to the apical chamber. After equilibration of currents, 10 μM forskolin (Selleckchem) was added to the basolateral side to activate CFTR channels via cAMP signaling. Currents were allowed to plateau, followed by acute addition of 10 μM ivacaftor at apical side for CFTR potentiation (Selleckchem). Inhibition of CFTR was performed using 10 μM Inh-172 (Selleckchem) added to the apical chamber.
The ability of Compound (I) to rescue chloride channel function was also assessed. CF bronchial epithelial (CFBE) cell lines was generated to stably express the splicing mutation c.2988G>A. Cells were grown in monolayers on filters and treated with increasing doses of Compound (I) (0.3 μM-10 μM) or DMSO for 3 days. Chloride channel function was assessed by measuring short circuit current (Isc) on treated CFBE cells. Forskolin was added to initiate CFTR channel activity via cAMP-mediated signaling, with further channel activation by Ivacaftor and inhibition with Inh-172, a CFTR-specific inhibitor (FIG. 9C, representative Isc tracing). CFTR-specific change in current (ΔIsc±SD) allows for measurement of chloride channel function (FIG. 9C). […] Significant recovery of CFTR function (˜3 fold) was observed following treatment with Compound (I) at 1, 3, 6, and 10 μM for 3 days, with a maximal increase in CFTR function achieved using 3 μM of Compound (I) (ΔIsc=37.168±4.32 μA/cm^2, FIG. 9C).

ELP1 exon 20 [1] = details: cited from earlier work
ELP1 exon 20 [2] = details: cited from earlier work; remark: listed apart in the source

Compound | improvement in CFTR function on acute addition of Ivacaftor (CFTR channel) [fold] | doses needed to achieve inclusion of Exon 20 in vivo (ELP1 exon 20 [1]) | Percent Spliced In (PSI) change for ELP1 exon 20 splicing (ELP1 exon 20 [2]; RNA sequencing after kinetin treatment) | additional exon-usage differences in response to kinetin (ELP1 exon 20 [2]; RNA sequencing) | usage differences that induced skipping of the middle exon (ELP1 exon 20 [2]; RNA sequencing) | usage differences that promoted inclusion of the middle exon (ELP1 exon 20 [2]; RNA sequencing)
CC(C)(C)c1cc(C(C)(C)C)c(NC(=O)c2c[nH]c3ccccc3c2=O)cc1O [Ivacaftor, reference compound] | ~2 |  |  |  |  | 
c1coc(CNc2ncnc3nc[nH]c23)c1 [kinetin, 6-furfurylaminopurine] |  | extremely high doses are necessary | 0.57 | 42 | 31 | 11
